ChEMBL document CHEMBL3045532, “Synthesis and evaluation of novel prodrugs of naproxen” (Med Chem Res, 2011)
One block for each molecule: values may come before it.

Legend:
Mus musculus [1] = experiment: Analgesic activity in Mus musculus (mouse) assessed as inhibition of acetic acid-induced writhing at 66.4 mg/kg, po pretreated 1 hr before acetic acid challenge; format: functional
[2] = Prodrug conversion in acetate buffer assessed as half-life for hydrolysis at pH 5; format: physicochemical
[3] = Prodrug conversion in phosphate buffer assessed as half-life for hydrolysis at pH 7.4; format: physicochemical
Rattus norvegicus [4] = experiment: Gastrointestinal toxicity in Rattus norvegicus Wistar (rat) assessed as ulcer at 66.4 mg/kg, po; format: organism-based; set-up: dose 66.4 mg/kg, route oral; conditions: in vivo
[5] = Prodrug conversion in acetate buffer assessed as half-life for hydrolysis at pH 4; format: physicochemical
Rattus norvegicus [6] = experiment: Anti-inflammatory activity in Rattus norvegicus Wistar (rat) assessed as inhibition of carrageenan-induced edema volume at 66.4 mg/kg, po measured after 120 min; format: functional; conditions: 2 h
Rattus norvegicus [7] = experiment: Anti-inflammatory activity in Rattus norvegicus Wistar (rat) assessed as inhibition of carrageenan-induced edema volume at 66.4 mg/kg, po measured after 30 min; format: functional; conditions: 0.5 h
[8] = Prodrug conversion in acetate buffer assessed as half-life for hydrolysis at pH 3; format: physicochemical
Rattus norvegicus [9] = experiment: Anti-inflammatory activity in Rattus norvegicus Wistar (rat) assessed as inhibition of carrageenan-induced edema volume at 66.4 mg/kg, po measured after 60 min; format: functional; conditions: 1 h
Rattus norvegicus [10] = experiment: Anti-inflammatory activity in Rattus norvegicus Wistar (rat) assessed as inhibition of carrageenan-induced edema volume at 66.4 mg/kg, po measured after 90 min; format: functional; conditions: 1.5 h
Rattus norvegicus [11] = experiment: Anti-inflammatory activity in Rattus norvegicus Wistar (rat) assessed as inhibition of carrageenan-induced edema volume at 67.4 mg/kg, po measured after 60 min; format: functional; conditions: 1 h
Rattus norvegicus [12] = experiment: Gastrointestinal toxicity in Rattus norvegicus Wistar (rat) assessed as ulcer at 69.4 mg/kg, po; format: organism-based; set-up: dose 69.4 mg/kg, route oral; conditions: in vivo
Rattus norvegicus [13] = experiment: Anti-inflammatory activity in Rattus norvegicus Wistar (rat) assessed as inhibition of carrageenan-induced edema volume at 67.4 mg/kg, po measured after 30 min; format: functional; conditions: 0.5 h
Rattus norvegicus [14] = experiment: Anti-inflammatory activity in Rattus norvegicus Wistar (rat) assessed as inhibition of carrageenan-induced edema volume at 67.4 mg/kg, po measured after 120 min; format: functional; conditions: 2 h
Mus musculus [15] = experiment: Analgesic activity in Mus musculus (mouse) assessed as inhibition of acetic acid-induced writhing at 67.4 mg/kg, po pretreated 1 hr before acetic acid challenge; format: functional
Rattus norvegicus [16] = experiment: Anti-inflammatory activity in Rattus norvegicus Wistar (rat) assessed as inhibition of carrageenan-induced edema volume at 67.4 mg/kg, po measured after 90 min; format: functional; conditions: 1.5 h
Rattus norvegicus [17] = experiment: Anti-inflammatory activity in Rattus norvegicus Wistar (rat) assessed as inhibition of carrageenan-induced edema volume at 66.2 mg/kg, po measured after 30 min; format: functional; conditions: 0.5 h
Mus musculus [18] = experiment: Analgesic activity in Mus musculus (mouse) assessed as inhibition of acetic acid-induced writhing at 66.2 mg/kg, po pretreated 1 hr before acetic acid challenge; format: functional
Rattus norvegicus [19] = experiment: Anti-inflammatory activity in Rattus norvegicus Wistar (rat) assessed as inhibition of carrageenan-induced edema volume at 66.2 mg/kg, po measured after 60 min; format: functional; conditions: 1 h
Rattus norvegicus [20] = experiment: Anti-inflammatory activity in Rattus norvegicus Wistar (rat) assessed as inhibition of carrageenan-induced edema volume at 66.2 mg/kg, po measured after 120 min; format: functional; conditions: 2 h
Rattus norvegicus [21] = experiment: Anti-inflammatory activity in Rattus norvegicus Wistar (rat) assessed as inhibition of carrageenan-induced edema volume at 66.2 mg/kg, po measured after 90 min; format: functional; conditions: 1.5 h
Rattus norvegicus [22] = experiment: Anti-inflammatory activity in Rattus norvegicus Wistar (rat) assessed as inhibition of carrageenan-induced edema volume at 67.8 mg/kg, po measured after 120 min; format: functional; conditions: 2 h
Rattus norvegicus [23] = experiment: Anti-inflammatory activity in Rattus norvegicus Wistar (rat) assessed as inhibition of carrageenan-induced edema volume at 67.8 mg/kg, po measured after 90 min; format: functional; conditions: 1.5 h
Rattus norvegicus [24] = experiment: Anti-inflammatory activity in Rattus norvegicus Wistar (rat) assessed as inhibition of carrageenan-induced edema volume at 67.8 mg/kg, po measured after 60 min; format: functional; conditions: 1 h
Rattus norvegicus [25] = experiment: Anti-inflammatory activity in Rattus norvegicus Wistar (rat) assessed as inhibition of carrageenan-induced edema volume at 67.8 mg/kg, po measured after 30 min; format: functional; conditions: 0.5 h
Mus musculus [26] = experiment: Analgesic activity in Mus musculus (mouse) assessed as inhibition of acetic acid-induced writhing at 67.8 mg/kg, po pretreated 1 hr before acetic acid challenge; format: functional
Rattus norvegicus [27] = experiment: Anti-inflammatory activity in Rattus norvegicus Wistar (rat) assessed as inhibition of carrageenan-induced edema volume at 69.4 mg/kg, po measured after 120 min; format: functional; conditions: 2 h
Rattus norvegicus [28] = experiment: Anti-inflammatory activity in Rattus norvegicus Wistar (rat) assessed as inhibition of carrageenan-induced edema volume at 69.4 mg/kg, po measured after 60 min; format: functional; conditions: 1 h
Mus musculus [29] = experiment: Analgesic activity in Mus musculus (mouse) assessed as inhibition of acetic acid-induced writhing at 69.4 mg/kg, po pretreated 1 hr before acetic acid challenge; format: functional
Rattus norvegicus [30] = experiment: Anti-inflammatory activity in Rattus norvegicus Wistar (rat) assessed as inhibition of carrageenan-induced edema volume at 69.4 mg/kg, po measured after 30 min; format: functional; conditions: 0.5 h
Rattus norvegicus [31] = experiment: Anti-inflammatory activity in Rattus norvegicus Wistar (rat) assessed as inhibition of carrageenan-induced edema volume at 69.4 mg/kg, po measured after 90 min; format: functional; conditions: 1.5 h

t1/2 [2]: 77 h
t1/2 [3]: 30 h
t1/2 [5]: 15 h
t1/2 [8]: 44 h
Compound: COc1ccc2cc(C(C)C(=O)OCC(OC(C)=O)C(OC(C)=O)C(OC(C)=O)C(/C=N/[C@@H](CS)C(=O)O)OC(C)=O)ccc2c1 (stereo not given in full)
inhibition in vivo at 66.4 mg/kg (Mus musculus [1]): 30.4%
Activity (Rattus norvegicus [4]): Non-toxic
inhibition in vivo at 66.4 mg/kg (Rattus norvegicus [6]): 67%
inhibition in vivo at 66.4 mg/kg (Rattus norvegicus [7]): 42%
inhibition in vivo at 66.4 mg/kg (Rattus norvegicus [9]): 30%
inhibition in vivo at 66.4 mg/kg (Rattus norvegicus [10]): 57%

Compound: COc1ccc2cc(C(C)C(=O)OCC(OC(C)=O)C(OC(C)=O)C(OC(C)=O)C(/C=N/[C@@H](CC(C)C)C(=O)O)OC(C)=O)ccc2c1 (stereo not given in full)
inhibition in vivo at 67.4 mg/kg (Rattus norvegicus [11]): 30%
Activity (Rattus norvegicus [12]): Non-toxic
inhibition in vivo at 67.4 mg/kg (Rattus norvegicus [13]): 46%
inhibition in vivo at 67.4 mg/kg (Rattus norvegicus [14]): 64%
inhibition in vivo at 67.4 mg/kg (Mus musculus [15]): 70.5%
inhibition in vivo at 67.4 mg/kg (Rattus norvegicus [16]): 32%

Compound: COc1ccc2cc(C(C)C(=O)OCC(OC(C)=O)C(OC(C)=O)C(OC(C)=O)C(/C=N/[C@H](C(=O)O)[C@@H](C)O)OC(C)=O)ccc2c1 (stereo not given in full)
inhibition in vivo at 66.2 mg/kg (Rattus norvegicus [17]): 18%
inhibition in vivo at 66.2 mg/kg (Mus musculus [18]): 60.4%
inhibition in vivo at 66.2 mg/kg (Rattus norvegicus [19]): 24%
inhibition in vivo at 66.2 mg/kg (Rattus norvegicus [20]): 58%
inhibition in vivo at 66.2 mg/kg (Rattus norvegicus [21]): 39%

Compound: COc1ccc2cc(C(C)C(=O)OCC(OC(C)=O)C(OC(C)=O)C(OC(C)=O)C(/C=N/[C@@H](Cc3ccccc3)C(=O)O)OC(C)=O)ccc2c1 (stereo not given in full)
inhibition in vivo at 67.8 mg/kg (Rattus norvegicus [22]): 69%
inhibition in vivo at 67.8 mg/kg (Rattus norvegicus [23]): 47%
inhibition in vivo at 67.8 mg/kg (Rattus norvegicus [24]): 13%
inhibition in vivo at 67.8 mg/kg (Rattus norvegicus [25]): 22%
inhibition in vivo at 67.8 mg/kg (Mus musculus [26]): 91.2%

t1/2 [2]: 50 h
t1/2 [3]: 18 h
t1/2 [5]: 67 h
t1/2 [8]: 22 h
Compound: COc1ccc2cc(C(C)C(=O)OCC(OC(C)=O)C(OC(C)=O)C(OC(C)=O)C(/C=N/[C@@H](Cc3ccc(O)cc3)C(=O)O)OC(C)=O)ccc2c1 (stereo not given in full)
inhibition in vivo at 69.4 mg/kg (Rattus norvegicus [27]): 67%
inhibition in vivo at 69.4 mg/kg (Rattus norvegicus [28]): 25%
inhibition in vivo at 69.4 mg/kg (Mus musculus [29]): 82%
inhibition in vivo at 69.4 mg/kg (Rattus norvegicus [30]): 60%
inhibition in vivo at 69.4 mg/kg (Rattus norvegicus [31]): 47%
